Series [1] relates to S. aureus (ATCC 6538). The series is classed as cell-based, Staphylococcus aureus. The note with it: for MIC/CAC, converted data, S. aureus: MIC divided by the amphiphile's CAC; for MIC, S. aureus: microdilution, serial half-dilution in PBS, Mueller Hinton broth, 37 °C, 24 h, 10^6 CFU/mL, by eye and OD600, ± SD, at least three replicates. The method, then:
(§1) E. coli (ATCC 25922), S. aureus (ATCC 6538), and C. albicans SC5314 (ATCC MYA-2876) were purchased from the American Type Culture Collection (ATCC). The two bacterial strains, E. coli and S. aureus, were cultured in Mueller Hinton broth at 37 °C; while the yeast strain, C. albicans, was grown in RPMI 1640 medium at 30 °C. The microdilution method was employed to determine MICs of the amphiphiles against the microorganism strains listed above.[21] Solutions of lipopeptides and biocides were half-diluted serially in 96-well plates using PBS buffer containing 137 mM NaCl, 2.7 mM KCl, 8.1 mM Na2HPO4, and 1.9 mM KH2PO4 for E. coli and S. aureus and using RPMI 1640 for C. albicans. Overnight incubations of the strains, in each respective growth medium, were then inoculated into each well, giving final concentrations of 10^6 CFU/mL for E. coli and S. aureus and 10^5 CFU/mL for C. albicans. Culture media without microorganisms and amphiphiles were employed as positive controls, while fresh microorganism cultures without amphiphiles were used as negative controls. Each plate has both positive controls and negative controls. The plates were then incubated at an appropriate temperature (stated above) for 24 h for the bacterial strains and 48 h for the yeast strain. MICs of each sample were first determined by eye. A more quantitative analysis was carried out by measuring optical densities at 600 nm (OD600) of each well using a Sunrise absorbance microplate reader (Tecan Group Ltd.). Inhibitory ratios (IRs) of each sample at a given concentration against a specific strain, denoted as IRi, were calculated by IRi = (OD600,negative control – OD600,i)/(OD600,negative control – OD600,positive control) × 100%. All experiments were repeated at least three times with each group containing three replicates. To better analyze concentration–IR relationships, sigmoidal function fittings were employed to generate the best fitted dose response curve for each situation.

Series [2] deals with C. albicans SC5314 (ATCC MYA-2876). In kind it is cell-based, Candida albicans. The note with it: for MIC/CAC, converted data, C. albicans: MIC divided by the amphiphile's CAC; for MIC, C. albicans: microdilution in RPMI 1640, 30 °C, 48 h, 10^5 CFU/mL, by eye and OD600, ± SD, at least three replicates. The method, then:
as §1

The nature of series [3]: Surface tension measurements (CAC, area per molecule). The series is classed as physicochemical. The note with it: Krüss K11, 25 °C, PBS or saline (171.5 mM NaCl, pH 7.2) of equivalent ionic strength, saline for C14KKGGII, points repeated at least three times. The method, then: Surface tensions of salt solutions of the amphiphiles were measured using a Krüss Force Tensiometer K11 at 25 °C. Saline (171.5 mM NaCl, final pH 7.2) instead of phosphate-buffered saline (PBS) was used to dissolve the samples of peptide C14KKGGII in order to avoid gelation above 0.1 mM. The ionic strength of the saline solution was the same as that of the PBS (consisting of 137 mM NaCl, 2.7 mM KCl, 8.1 mM Na2HPO4, and 1.9 mM KH2PO4, pH 7.2) solution employed in antimicrobial assays. Concentration effects on the surface tension were investigated for each amphiphile, and its CAC in the buffer environment was determined. All the data points were repeated at least three times. Quadratic functions were used to fit the surface tension at low concentrations below their CACs, while linear functions were used to fit the high concentration regions above the CACs for all three amphiphiles: [drawing 1] 1 [drawing 2] 2 where γ represents the surface tension in milli-newtons per meter, C is the amphiphile concentration in millimolar, and a1, b1, b2, c1, and c2 are the best fitted parameters. Intersections of the two lines give the estimated CACs of the amphiphiles. The Gibbs equation for solutions with a constant and excess salt is [drawing 3] […] The areas per molecule for the three amphiphiles at their CACs were calculated using [drawing 6] […]

The conditions of series [4]: previous findings by Lu et al.; cited from earlier work. From the text:
From the best fitted surface tension parameters (listed in Table S2), the area per molecule (APM) could be calculated from eq 4 for each amphiphile at its respective CAC. […] This is in line with the previous findings by Lu et al., which stated that APMs of C10TAB, C12TAB, C14TAB, C16TAB, and C18TAB adsorbed on the surface of water were 55 ± 3, 50 ± 2, 48 ± 3, 43 ± 3, and 43 ± 3 Å^2, respectively.[29]−[33] Each lipopeptide molecule occupied around 79 ± 10 Å^2 at ...

In the case of `CCCCCCCCCCCC[N+](C)(C)C.[Br-]` [C12TAB, dodecyltrimethylammonium bromide], in series [1], the “MIC/CAC, converted data, S. aureus” value is reported as 0.03 ± 0.01 and the “MIC, S. aureus” value came to 25 ± 7 µM. Moreover, in series [2], the “MIC/CAC, converted data, C. albicans” value is 0.10 ± 0.03 and the “MIC, C. albicans” value is 100 ± 30 µM. Besides, the “CAC (critical aggregation concentration)” value in series [3] was ~1000 ± 100 µM. Moreover, in series [4], the “APM adsorbed on the surface of water” value is given as 50 ± 2 Å^2.

As for `CCCCCCCCCCCCCC[N+](C)(C)C.[Br-]` [C14TAB, tetradecyltrimethylammonium bromide], in series [1], the “MIC/CAC, converted data, S. aureus” value turned out to be 0.06 ± 0.04 and the “MIC, S. aureus” value was determined as 6 ± 4 µM. Further, in series [2], the “MIC/CAC, converted data, C. albicans” value was 0.12 ± 0.02 and the “MIC, C. albicans” value was found to be 12 ± 2 µM. Further, the “APM adsorbed on the surface of water” value in series [4] is given as 48 ± 3 Å^2.

Values taken from paper PMC9161444, “In-Membrane Nanostructuring of Cationic Amphiphiles Affects Their Antimicrobial Efficacy and Cytotoxicity: A Comparison Study between a De Novo Antimicrobial Lipopeptide and Traditional Biocides” (Langmuir, 2022).
